Here are results for two molecules from patent US20090054403A1, “Treatment of Post-Traumatic Stress Disorder” (priority 2007, published 2009).

Each structure is given as a SMILES string. Entries after “also recorded” stand apart in the source; their conditions may differ. Where two headings read alike, the source gives them in different places.

In one data set the test system is pre-pulse inhibition. The data set is described as follows: Pre-pulse inhibition of acoustic startle on day ten of chronic dosing. How it is done:
(§1) The effects of chronic dosing of nepicastat were examined. Between three and thirteen days prior to the first dosing day the rats were placed inside the startle apparatus and after a five minute acclimation period they were presented with a 118 dB noise burst on average once a minute (a variable inter-trial interval ranging between 30 and 90 seconds will be used) for 20 minutes. The startle responses were measured and a mean for the last twenty startle response was calculated for each rat.
Acoustic startle reactivity (a series of muscle contractions elicited by an intense burst of noise with a rapid onset), and pre-pulse inhibition (sensorimotor gating measured by analyzing any decrease in startle reactivity which occurs when a startling stimulus is immediately preceded by a non startling stimulus) were both measured in eight SR-Lab (San Diego Instruments, San Diego, Calif.) test stations. The rats were placed individually in a Plexiglas cylinder (10 cm diameter) which was housed in a ventilated sound-attenuating enclosure. Acoustic noise bursts (a broad band noise with a rise time and fall time of 1 msec) were presented via a speaker mounted 30 cm above the animal. Also, these speakers produced a 68 dB level of background noise throughout all test sessions. […] A decibel meter was used to calibrate the speakers in each of the eight test station to ±1% of the mean. Additionally, a SR-Lab calibrating instrument was used to calibrate each of the eight startle detection apparatuses to ±2% of the mean. Startle reactivity and pre-pulse inhibition tests were run concurrently immediately alter the motor activity test (about 4 hours and 40 minutes after the morning daily injection of nepicastat, and SKF-102698, and 10 minutes after a supplemental administration of clonidine and d-amphetamine on dosing day ten).

For data set [1], the system named is spontaneous motor activity. Briefly: Spontaneous motor activity on day ten of chronic dosing. As for the experimental part:
as §1
The animals were tested in an enclosed room with a white noise generator running. Motor activity tests were conducted immediately after the body core temperature reading taken on dosing day ten (about 3 hours and 35 minutes after the morning daily dose of nepicastat, and SKF-102698, and 20 minutes prior to the daily administration of clonidine and d-amphetamine on dosing day ten). Motor activity tests were run for one hour. A diagnostic program was run on each of the motor activity chambers prior to each test session to assure that the photo beams and light sensors were operating properly. […] D-amphetamine was used as the positive control for this assay.
Each rats spontaneous locomotion was obtained by calculating the total number of photobeams that the subject broke during the testing session.
Spontaneous motor activity was measured for each animal every 15 min for 1 hour. Each time block (every 15 min) was analyzed separately. Kruskal-Wallis test (nonparametric technique) was performed to test for the difference between treatment groups. If the overall significant difference […], Bonferroni's adjustment for multiple comparisons is then made.

Data set [2] can be described thus: Pharmacokinetics after single oral dose in rats (plasma and brain). Format: in vivo, rats (Crl: CD BR Vaf+). The following applies: for half-life: Crl: CD BR Vaf+, rat, plasma, read-out: elimination half-life (converted). How it is done:
Male rats (Crl: CD BR Vaf+) weighing 180-220 g were fasted overnight before dosing and until 4 hr after dosing. Doses were formulated in water containing 2% 1-hydroxypropyl methylcellulose (50 centipoises viscosity), 1% benzyl alcohol, and 0.6% Tween 80 (all obtained from Sigma Chemical Company). Concentration of drug in the dose solutions was 5, 15, and 50 mg/ml for the 10, 30, and 100 mg/kg doses, respectively, and was verified by liquid chromatography (LC). The 5 mg/ml dose was a clear solution and the higher concentrations were a translucent suspension. Dose volumes were 2.0 ml/kg. At various times after dosing, samples of blood were obtained by cardiac puncture with heparinized syringes, and plasma was prepared by centrifugation. Brains of rats were surgically excised, and all samples were frozen at −20° C. until analysis.
Aliquots of plasma (0.05 or 0.5 ml) were mixed with internal standard (50 μl of methanol containing 5 μg/ml a monofluoro analog of nepicastat, and 5 mg/ml dithiothreitol). Samples were mixed with 200 mM sodium phosphate buffer, pH 7.0, (0.5 ml) and extracted with 3 ml of ethyl acetate/hexane (1/1, v/v). The organic phase containing analytes was back extracted with 250 μl of 250 mM acetic acid and 100 μl aliquots of the aqueous phase were assayed by LC. The LC system used a Keystone Hypersil BDS 15 cm C8 column at ambient temperature. Mobile phase A was 12.5 mM potassium phosphate, pH 3.0, with 5 mM dodecanesulfonic acid and mobile phase B was acetonitrile. Solvent composition was 40% B and was pumped at a flow rate of 1 ml/min. Detection was by UV absorption at 261 nm. Concentrations of analytes were determined from a standard curve generated from the analysis of plasma from untreated rats fortified with known concentrations of analyte. Plasma concentration data are expressed as μg (free base) per ml.
Brains were rinsed briefly with saline, blotted on a paper towel, then weighed (1.5-2.0 g). Internal standard was added (50 μl of methanol containing 20 μg/ml a monofluoro analog of nepicastat), and brains were homogenized in 5 ml of 200 mM sodium phosphate, pH 7.0, containing 0.5 mg/ml dithiothreitol. Aliquots of homogenate (2 ml) were extracted with 10 ml of ethyl acetate/hexane (1/1, v/v). The organic phase was gently back extracted with 150 μl of 250 mM acetic acid.
Following addition of 100 μl of methanol to the aqueous phase (to disperse any emulsion), 100 μl aliquots were assayed by LC as described for plasma. Level in brain are expressed as μg (free base) per g of brain tissue.
Pharmacokinetic parameters were calculated from mean plasma concentrations. Plasma half-life (T1/2) was calculated as 0.693/β, where β is the elimination rate constant determined by linear regression of the log plasma concentration vs. time data within the terminal linear portion of the data. Areas under the plasma concentration vs. time curve (AUC) from zero to the time of the last quantifiable plasma concentrations were calculated by the trapezoidal rule. AUC from zero to infinity (AUCtotal) was calculated as:
AUCtotal=AUC(0−Clast)+Clastβ where Clast is the last quantifiable plasma concentration.

The test system of data set [3] is heart rate, systolic blood pressure. Briefly: Heart rate and tail cuff systolic blood pressure, 21 days daily treatment. Format: in vivo, SHR. The following applies: 1 and 10 mg/kg p.o. for 21 days.

As to `Fc1cc(F)cc(Cn2cc[nH]c2=S)c1` [SKF 102698, reference compound], the “percent prepulse inhibition vs vehicle” value in the data set on pre-pulse inhibition (day ten of b.i.d. oral dosing) is given as “marginally higher percent prepulse inhibition; also recorded: Neither d-amphetamine nor SKF 102698 was significantly different”. The “spontaneous motor (locomotor) activity vs vehicle” value in data set [1] (day ten of b.i.d. oral dosing, 1 hour) is “significantly lower locomotor activity than its vehicle control at the first 45 minutes”; in data set [1] (day ten of b.i.d. oral dosing, 1 hour, listed as SKF102698) it was “significantly reduced”.

Regarding `Cl.NCc1c[nH]c(=S)n1[C@H]1CCc2c(F)cc(F)cc2C1` [nepicastat, (S)-5-Aminomethyl-1-(5,7-difluoro-1,2,3,4-tetrahydronaphth-2-yl)-2,3-dihydro-2-thioxo-1H-imidazole hydrochloride], the “concentrations in brain relative to plasma” value in data set [2] (10 mg/kg oral, male rats, from 2 hr following dosing onward) is reported as “exceeded those in plasma”. The “plasma AUCtotal in female rats relative to male rats (higher by)” value in data set [2] (30 mg/kg oral) was found to be 77%. For the same molecule, the “relationship between AUCtotal and dose” value in data set [2] (10-100 mg/kg oral, male rats) is recorded as “linear”. For the same molecule, the half-life is 1.7 h in data set [2] (10 mg/kg oral, male rats); 2.09 h in data set [2] (30 mg/kg oral, male rats); 3.88 h in data set [2] (100 mg/kg oral, male rats). Besides, the “percent prepulse inhibition vs vehicle” value with pre-pulse inhibition (rat, in vivo, po) was “None of the nepicastat dose groups were significantly different”. Also, the “heart rate and systolic blood pressure (tail cuff)” value in data set [3] was “did not alter heart rate, or systolic blood pressure”. Moreover, in data set [1] (rat, in vivo, po), the “spontaneous motor (locomotor) activity vs vehicle” value is listed as “no overall significant treatment effect”.
